Where “and” joins values, the source holds several entries; their conditions need not be identical. Equal entries are not always repeated. Non-standard residues stand in square brackets, D forms with d. No end group written: not given here.
Experiments:
[1] = system: peripheral blood cells of MS patients; assay: Frequency of APL-responsive peripheral blood T cells after dosing of MS patients (split-well); assay type: in vivo, human
Method: Patients received either 10 or 20 mg of APL NBI-5788 (weekly for four weeks). Peripheral blood cells were collected from four patients approximately one year after dosing, as well as from 14 MS patients who had not received the APL and from two normal, healthy volunteers. The frequency of response to the peptide was determined using the split-well technique. Cells were seeded in 48 wells/plate, as well as 12 control wells without antigenic stimulation, at a density of 1×10^5 cells/well. Cells were set up in IMDM+10% human plasma pool+penicillin/streptomycin 100 U/ml+gentamycin 50 μg/ml +2 mM L-glutamine (or complete media, CM). Peptide antigen (25 μg) was added and then included for no more than one feeding with media. At day 12, the medium was changed to CM without IL-2. Two days later, the split-wells were established. The wells were resuspended with a multichannel pipetor, 100 μl of the cell suspension was transferred to adjacent wells on a new plate (daughter plate) and mixed with 100 μl of media containing 1×10^5 antigen presenting cells (peripheral blood lymphocytes, PBL irradiated with 3000 R in CM with or without antigen; 25 μg/ml). After 48 hours of culturing, 100 μl of supernatant was removed from the daughter plate for later cytokine determination and stored at -70° C.
For the proliferation assay, ^3H-thymidine (0.5 μCi) was added to the daughter plate and the plates reincubated for an additional 8 hours. The wells were then harvested onto filter mats and the level of ^3H-thymidine incorporation determined using beta scintillation. Counts greater than three-fold over background were considered positive.

[2] = system: Dr2b-restricted T cell clone 5F6; assay: Cytokine production (TNF-α, IFN-γ) by T cell clone 5F6, EIA; assay type: cell-based, human
Method: As discussed in detail below, the production of cytokines may also be assessed. In particular, TNF-α and IFN-γ production are especially interesting. These pro-inflammatory cytokines are thought to play a role in the pathogenesis of the disease. Briefly, T cell clone is incubated in the presence of stimulating MBP peptide and peptide analog or control peptide (SWM) or medium only. After a 24 hour incubation, the levels of TNF-α and IFN-γ in the supernatant are determined using commercially available EIA kits (Endogen, Cambridge, Mass.).
The ability of the peptide analog ligand to influence cytokine production was next measured. The Dr2b-restricted T cell clone 5F6 was incubated in the presence of 3 μM MBP peptide with either 10 μM of NBI-5788 (SEQ ID NO:7) or SWM or medium only. As a control, cells were cultured in the presence of medium alone. After 24 hours, supernatants were removed and the levels of tumor necrosis factor alpha (TNF-α) and interferon-y (IFN-γ) determined using commercially available EIA kits.

[3] = system: Dr2a restricted human T cell clone reactive to MBP; assay: Human T cell proliferation, Dr2a restricted clone; assay type: cell-based
Method: Human T cells reactive to MBP (83-99) may alternatively be used to measure the ability of the peptide analog to inhibit proliferation of T cells induced by native MBP (83-99) peptide. MBP-specific T cells may be obtained as previously described by Martin et al., J. Immunol. 148:1359-1366, 1992. Briefly, T cell lines are established by culture of human T cells with irradiated, DR-matched peripheral blood cells in MEM supplemented with 2 mM L-glutamine, 50 μg/ml gentamicin, penicillin and streptomycin, 100 U/ml rIL-2, and 10% human AB negative serum. Proliferation of these T cell lines is stimulated by culturing a clone with varying concentration (1.1-30 μM) of native […] peptide, 50 μM of the peptide analog or SWM peptide, in the presence of irradiated, DR matched peripheral blood cells, following incubation for approximately 60 hours, the cells are pulsed with ^3H-thymidine for 12 hours and harvested. The amount of incorporated ^3H-thymidine is measured.
The ability of the peptide analogs NBI-5719, 5748, 5765, 5788 and 5789 (SEQ ID NOs: 4-8 respectively) to affect human T cell proliferation was assessed. […] The amount of tritiated thymidine incorporated was measured, and the data represented as the mean plus or minus the standard error of the mean of replicate samples.
The potency of NBI-5788 (SEQ ID NO:7) was then determined by varying concentrations of the APL. […]

Substance: MBP(83-99) (83E>a, 84N>K, 89F>L, and 91K>A) ([dA]KPVVHLFANIVTPRTP) [NBI-5788]
- Percent Reactivity (frequency of APL NBI-5788-reactive T cells) ([1]; 10 mg (n = 1)): 23%
- frequency of APL responsive wells (SI>3), individual patient ([1]; 10 mg weekly for four weeks, about one year after dosing): 23%
- Percent Reactivity (frequency of APL NBI-5788-reactive T cells) ([1]; 20 mg (n = 3)): 39 ± 18%
- frequency of APL responsive wells (SI>3), individual patients ([1]; 20 mg weekly for four weeks, about one year after dosing, listed as APL): 11% and 32% and 72%
- APL specific lines from treated patients cross reacting with native MBP (83-99) ([1]; human, in vivo): 6/31
- APL specific lines from treated patients reacting with whole MBP ([1]; human, in vivo): 4/31
- effect on MBP-stimulated production of TNF-α and IFN-γ ([2]; 10 μM peptide with 3 μM MBP peptide, to approximately levels with medium only): dramatically inhibited the production of both pro-inflammatory cytokines
- stimulation of cytokine production over background by the analog itself ([2]; even at concentrations of 50 μM (data not shown)): None
- inhibition of proliferative response of Dr2a restricted T cell clone to MBP(83-99) ([3]; 50 μM peptide, MBP(83-99) 1.1-30 μM, FIGS. 13 and 14): inhibited the ability of a human Dr2a restricted T cell clone to respond
- inhibition of response of Dr2a T cell line to MBP(83-99), potency ([3]; APL 2, 10 or 50 μM, effect at both 10 and 50 μM, SWM 50 μM, FIG. 15): significantly altered the ability of the Dr2a T cell line to respond to MBP(83-99)

Source: US6379670B1, “Methods for treatment of multiple sclerosis using peptide analogs of human myelin basic protein” (Neurocrine Biosciences, Inc., priority 1994, dated 2002)
